# From US10668040B2, “Treatment of urea cycle disorders in neonates and infants” (Horizon Therapeutics, LLC, priority 2017, dated 2020)
# Tested on: UCD patients
# Assay: Example 3: TEAEs, serious and non-serious adverse events
# Format: in vivo
# Text: Sixteen newborn infants aged 0 to 27 days, and 10 infants and toddlers aged 28 days to 23 months received RAVICTI Oral Liquid administered just prior to breastfeeding or intake of formula or food. The recommended dosing regimen was 3-6 times per day depending on feeding schedule.
# Number of Subjects with Treatment-Emergent Adverse Events (TEAEs), Serious TEAEs, Deaths, and Discontinuations Due to TEAEs
# An adverse event (AE) is any untoward medical occurrence, whether or not the event is considered related to the study drug. A serious AE is any AE that: results in death; is life threatening; requires hospitalization or prolongation of existing hospitalization; results in disability/incapacity; is a congenital anomaly/birth defect; is an important medical event. TEAEs are defined as AEs with an onset date on or after the first dose of study medication until study discontinuation. The Investigator assessed the causal relationship of each TEAE to the study drug as not related, possibly related, or probably related. From the first dose of study treatment through 30 days after the final dose (mean [SD] duration of treatment was 9.13 [6.838] months).
# [1] = Non-serious adverse events, Age 0 to <2 Months
structure (smiles),measurement,setting,value
"O=C(CCCc1ccccc1)OCC(COC(=O)CCCc1ccccc1)OC(=O)CCCc1ccccc1 [RAVICTI, benzenebutanoic acid, 1′,1″-(1,2,3-propanetriyl) ester]",Serious AE Feeding Disorder: Occurrences causally related to treatment/all,Age 2 Months to <2 Years,0/0
same,Serious AE Gastroenteritis: Deaths causally related to treatment/all,Age 2 Months to <2 Years,0/0
same,Serious AE Gastroenteritis: Occurrences causally related to treatment/all,Age 2 Months to <2 Years,0/1
same,Serious AE Hyperammonaemia: Deaths causally related to treatment/all,Age 2 Months to <2 Years,0/0
same,Serious AE Hyperammonaemia: Occurrences causally related to treatment/all,Age 2 Months to <2 Years,0/7
same,Serious AE Influenza: Deaths causally related to treatment/all,Age 2 Months to <2 Years,0/0
same,Serious AE Influenza: Occurrences causally related to treatment/all,Age 2 Months to <2 Years,0/1
same,Serious AE Lethargy: Deaths causally related to treatment/all,Age 2 Months to <2 Years,0/0
same,Serious AE Lethargy: Occurrences causally related to treatment/all,Age 2 Months to <2 Years,0/0
same,Serious AE Medical device site infection: Deaths causally related to treatment/all,Age 2 Months to <2 Years,0/0
same,Serious AE Medical device site infection: Occurrences causally related to treatment/all,Age 2 Months to <2 Years,0/0
same,Serious AE Meningitis bacterial: Deaths causally related to treatment/all,Age 2 Months to <2 Years,0/0
same,Serious AE Meningitis bacterial: Occurrences causally related to treatment/all,Age 2 Months to <2 Years,0/0
same,Serious AE Neutropenia: Deaths causally related to treatment/all,Age 2 Months to <2 Years,0/0
same,Serious AE Neutropenia: Occurrences causally related to treatment/all,Age 2 Months to <2 Years,0/0
same,Serious AE Peritonitis: Deaths causally related to treatment/all,Age 2 Months to <2 Years,0/1
same,Serious AE Peritonitis: Occurrences causally related to treatment/all,Age 2 Months to <2 Years,0/1
same,Serious AE Pneumatosis intestinalis: Deaths causally related to treatment/all,Age 2 Months to <2 Years,0/1
same,Serious AE Pneumatosis intestinalis: Occurrences causally related to treatment/all,Age 2 Months to <2 Years,0/1
same,Serious AE Pyrexia: Deaths causally related to treatment/all,Age 2 Months to <2 Years,0/0
same,Serious AE Pyrexia: Occurrences causally related to treatment/all,Age 2 Months to <2 Years,0/1
same,Serious AE Respiratory syncytial virus infection: Deaths causally related to treatment/all,Age 2 Months to <2 Years,0/0
same,Serious AE Rhinovirus infection: Deaths causally related to treatment/all,Age 2 Months to <2 Years,0/0
same,Serious AE Status asthmaticus: Deaths causally related to treatment/all,Age 2 Months to <2 Years,0/0
same,Serious AE Status asthmaticus: Occurrences causally related to treatment/all,Age 2 Months to <2 Years,0/1
same,Serious AE Tracheitis: Deaths causally related to treatment/all,Age 2 Months to <2 Years,0/0
same,Serious AE Tracheitis: Occurrences causally related to treatment/all,Age 2 Months to <2 Years,0/0
same,Serious AE Upper respiratory tract infection: Deaths causally related to treatment/all,Age 2 Months to <2 Years,0/0
same,Serious AE Upper respiratory tract infection: Occurrences causally related to treatment/all,Age 2 Months to <2 Years,0/0
same,Serious AE Urinary tract infection: Deaths causally related to treatment/all,Age 2 Months to <2 Years,0/0
same,Serious AE Urinary tract infection: Occurrences causally related to treatment/all,Age 2 Months to <2 Years,0/1
same,Serious AE Viral infection: Deaths causally related to treatment/all,Age 2 Months to <2 Years,0/0
same,Serious AE Viral infection: Occurrences causally related to treatment/all,Age 2 Months to <2 Years,0/2
same,Serious AE Viral upper respiratory tract infection: Deaths causally related to treatment/all,Age 2 Months to <2 Years,0/0
same,Serious AE Viral upper respiratory tract infection: Occurrences causally related to treatment/all,Age 2 Months to <2 Years,0/1
same,Serious AE Vomiting: Deaths causally related to treatment/all,Age 2 Months to <2 Years,0/0
same,Serious AE Vomiting: Occurrences causally related to treatment/all,Age 2 Months to <2 Years,0/0
same,"Agitation, Occurrences (all)",[1],1
same,"Alanine aminotransferase increased, Occurrences (all)",[1],1
same,"Amino acid level decreased, Occurrences (all)",[1],1
same,"Amino acid level increased, Occurrences (all)",[1],2
same,"Ammonia increased, Occurrences (all)",[1],1
same,"Anaemia, Occurrences (all)",[1],3
same,"Angular cheilitis, Occurrences (all)",[1],2
same,"Anion gap increased, Occurrences (all)",[1],1
same,"Apnoea, Occurrences (all)",[1],0
same,"Arthropod bite, Occurrences (all)",[1],1
same,"Aspartate aminotransferase increased, Occurrences (all)",[1],1
same,"Blood bicarbonate decreased, Occurrences (all)",[1],1
same,"Blood urea decreased, Occurrences (all)",[1],1
same,"Body height below normal, Occurrences (all)",[1],1
same,"Candida infection, Occurrences (all)",[1],2
same,"Carbon dioxide decreased, Occurrences (all)",[1],2
same,"Cardiac disorders (Tachycardia), Occurrences (all)",[1],1
same,"Catheter site rash, Occurrences (all)",[1],1
same,"Conjunctivitis, Occurrences (all)",[1],0
same,"Constipation, Occurrences (all)",[1],2
same,"Cough, Occurrences (all)",[1],5
same,"Croup infectious, Occurrences (all)",[1],2
same,"Dacryostenosis congenital, Occurrences (all)",[1],0
same,"Decreased appetite, Occurrences (all)",[1],2
same,"Dehydration, Occurrences (all)",[1],4
same,"Dermatitis diaper, Occurrences (all)",[1],6
same,"Device occlusion, Occurrences (all)",[1],1
same,"Diarrhoea, Occurrences (all)",[1],6
same,"Drug withdrawal syndrome, Occurrences (all)",[1],1
same,"Dysphagia, Occurrences (all)",[1],1
same,"Ear and labyrinth disorders (Excessive cerumen production), Occurrences (all)",[1],0
same,"Ear infection, Occurrences (all)",[1],3
same,"Eczema, Occurrences (all)",[1],2
same,"Eye discharge, Occurrences (all)",[1],1
same,"Feeding disorder of infancy or early childhood, Occurrences (all)",[1],1
same,"Flatulence, Occurrences (all)",[1],3
same,"Gamma-glutamyltransferase increased, Occurrences (all)",[1],1
same,"Gastroenteritis, Occurrences (all)",[1],1
same,"Gastrointestinal viral infection, Occurrences (all)",[1],1
same,"Gastrooesophageal reflux disease, Occurrences (all)",[1],6
same,"Gross motor delay, Occurrences (all)",[1],0
same,"Hepatic enzyme increased, Occurrences (all)",[1],2
same,"Hepatobiliary disorders (Hepatic calcification), Occurrences (all)",[1],1
same,"Hyperammonaemia, Occurrences (all)",[1],3
same,"Hypophagia, Occurrences (all)",[1],1
same,"Immune System Disorders (Seasonal allergy), Occurrences (all)",[1],0
